The values below come from patent US10993895B2, “Composition obtainable by passing singlet oxygen through extra virgin olive oil” (priority 2017, dated 2021).

One data set has as its system MRSA 10. Briefly: Infected incised wound of rats, MRSA 10. It counts as in vivo, Rattus Norvegicus. Particulars: wound infected with MRSA 10; 6 rats. On the procedure:
(§1) Effectivity Study on Infected Incised Wound of Rattus Norvegicus Experimental Research on Animal Testing
(§2) Method: Solution Preparation Protocol for Infected Incised Wound
(§3) Preparing the solution with these following steps:
(§4) 1. Bacteria from the infected patient clinical isolate is planted on the media by streaking at for quadrant
(§5) 2. The isolated bacteria in separated colonies are dissolved in the tube that contain pz liquid
(§6) 3. In order to analyze the cloudness level of the solution on the tube, nephelometer is used to figure the cloudness level to 0.50 McFarland.
(§7) 4. 0.5 McFarland is equal to 1.5×10^8 CFU bacteria.
(§8) Infected Incised Wound Preparation Protocol on Animals
(§9) 1. Preparation of animals:
(§10) 1. Inject the animals with anesthesia drug containing ketamine hydrochloride, 0.1-0.2 ml
(§11) 2. Place them back into the cage while waiting them to be fully unconscious as the effect of the drug.
(§12) 3. Shave the back hair of the animals with razor blade.
(§13) 4. Give antiseptics, i.e. povidone iodine and alcohol. Wait for three minutes.
(§14) 5. Make a 2-cm long incision on the animal's back. Should any bleeding occurred, wipe with cotton.
(§15) 6. Swipe the incised spot with the bacteria solution using a cotton bud.
(§16) 7. Cover the spot with gauze bandage and stick it with plaster.
8. […]
(§17) The tissue's processing is started after the fixation completed. […] Remove from the oven and leave it in room temperature, then the tissue is ready to dye. […]

For the next data set, the system named is MRSA 6. Briefly: Infected incised wound of rats, MRSA 6. The settings on record: wound infected with MRSA 6; 6 rats. It counts as in vivo, Rattus Norvegicus. On the procedure:
as §1, §2, §3, §4, §5, §6, §7, §8, §9, §10, §11, §12, §13, §14, §15, §16
8. […]
as §17

Data set [1] deals with Incised Wound Rattus Norvegicus. Briefly: Acute toxicity study on incised wound healing in rats. It counts as in vivo. The arrangement: Neo vascularization: key to the marks not given beside the values. Here is the method: Research Protocol: Acute Toxicity Study on the Incised Wound healing Rattus Norvegicus In Vivo research on animals
as §9
1. Inject the animals with anesthesia drug containing ketamine hydrochloride, 0.1-0.2 ml as illustrated in 101 of FIG. 1.
2. Place them back into the cage while waiting them fully unconscious as the effect of the drug.
as §12
4. Give antiseptics, i.e. povidone iodine and alcohol. Wait for three minutes as illustrated in 102 of FIG. 1.
5. Make a 2-cm long incision on the animal's back as illustrated in 103 of FIG. 1. Should any bleeding occurred, wipe with cotton.
6. Apply cotton bud ton the incision spot.
7. Cover the spot with gauze bandage and stick it with plaster as illustrated in 104 of FIG. 1.
8. Place the animal back in to the cage.
2. Fixation Tissue Protocol
The skin organs from treatment and control group are taken after the incision, then put them to the bottles containing fixation solution, and give labels. The intensions of the fixation are:
3. Tissue Processing Protocol/Paraffin Block
The tissue's processing is started after the fixation completed. The steps of this process are dehydration, clearing, and impregnation/embedding. […] Afterward, do the clearing by place the tissue into xylol. Then, do the impregnation/embedding by using paraffin. The detail of this process is as follows: After the fixation is completed, the tissues are placed into the following solution, consecutively. 1. Alcohol 70%: - 2. Alcohol 80% 1 hour 3. Alcohol 95%: 2 hour 4. Alcohol 95%: 1 hour 5. Alcohol 100%: 1 hour 6. Alcohol 100%: 1 hour 7. Alcohol 100%: 1 hour 8. Xylol: 1 hour 9. Xylol: 1 hour 10. Xylol: 2 hour 11. Paraffin (56-58° C.): 2 hour 12. Paraffin (56-58° C.) 2 hour 13. Paraffin (56-58° C.) 2 hour
4. Tissue Slicing and Attaching Process on object glass Protocol.
5. Hematoxilin Eosin Dyeing Protocol
The steps of HE dyeing method are:
This research use 24 Rats divided into 4 groups of treatment; they are Vaseline, Sibro, Gentamicin and Test. Composition. Each group has 6 rats.
2. […] After then stopped the bleeding, applied Vaseline, Sibro, Gentamicin and Test Composition to each group. Application of Vaseline (201), Sibro (202), Gentamicin (203) and Test Composition (204) are illustrated in FIG. 2.
There are 4 parameters in observing incised wound microscopically, they are Epithelization, Fibroplasia, Neovascularization, and scar.

Setting [2] is: incised wound, microscopic (HE), after 7 days.

In the case of `C/C(=C\C(=O)OCCCCCCCCC(=O)O)C[C@@H]1OC[C@H](C[C@@H]2O[C@H]2[C@@H](C)[C@H](C)O)[C@@H](O)[C@H]1O` [mupirocine, Mupirocin], in the data set with MRSA 10, the “Dead Rats” value is recorded as 0 and the Survival was determined as 6. Further, in the data set on MRSA 6, the “Dead Rats” value was 0 and the Survival is 6.
As for Gentamicin [Gentamisin], in data set [1] (incised wound, macroscopic condition), the “Wound condition on day −7 (macroscopic)” value is recorded as “Closing (with 1 granulation)”. In data set [1] (setting [2]), the Epitheliazation result is listed as “+”, the Fibroplasia entry was “+”, the Neo vascularization entry was “++” and the Scar result is given as “+”. For the same molecule, the “Dead Rats” value in data set [1] (substance applied on 2-cm incised wound, 6 rats per group, up to day 7) was 0. In addition, in data set [1] (substance applied on 2-cm incised wound, survivors/6 rats), the “Survival on day −7” value was 6/6.
